Entries after “also recorded” stand apart in the source; their conditions may differ.

For assay [1], the system named is Horse chondrocytes from OA horses. The experiment in a line: ATP-evoked intracellular Ca2+ signalling in horse chondrocytes (fluorescence-based assay, Flexstation 3). Conditions: for intracellular Ca2+ release (AUC and peak): ATP 10^-4 M, OA horse chondrocytes. The assay is classed as cell-based. Here is the method: Horse chondrocytes from OA horses were stimulated, in a fluorescence-based assay for detecting changes in intracellular Ca^2+ over time, with ATP (10^−4 M). The cells were cultivated in 5.5 mM glucose the whole cultivation period. Ca^2+ responses were measured after the cells were incubated for 24 h with metformin (1 mM), and bupivacaine (10^−12 M). Controls are untreated chondrocytes. The area under the Ca^2+ peak (AUC)(FIG. 1 A) was calculated for each Ca^2+ transient as well as the amplitude (peak) (FIG. 1 B) was expressed as the maximum increase. The cells were obtained from 4 experiments with quadruple wells in each. The level of significance was analyzed using a one-way ANOVA followed by Dunnett'multiple comparisons test. **P<0.01, **P<0.001. Similar data was obtained for human chondrocytes.
Articular cartilage samples were obtained, within 24 h of euthanasia, from the middle carpal joints of six horses (1-8-year-old). […] The horses were euthanized because of reasons unrelated to this study, and the Ethical Committee on Animal Experiments, Stockholm, Sweden, approved the study protocol (Dnr: N378/12).
Following aseptic preparation, cartilage of the dorsal aspect of the radial facet of the third carpal bone was incised with a scalpel, and full-thickness cartilage samples were collected with forceps. The tissue was placed in a sterile saline (0.9% NaCl) solution with gentamicin sulfate (50 mg/l) and amphotericin B (250 μg/ml). Cartilage samples were transported chilled (approx. 5° C.) to the laboratory. Isolation and expansion of chondrocytes were performed as previously described (Ley C, Svala E, Nilton A, Lindahl A, Eloranta M, Ekman S, Skiöldebrand E.Connect Tissue Res. (2011); 52 (4): 290-300). Cells were expanded in passage 1 and cells were seeded at 20,000 cells/cm2 in chondrogenic media to maintain the phenotype, DMEM-high glucose (DMEM-HG) (Thermo Fisher Scientific; Waltham, Mass., USA) supplemented with 14 μg/ml ascorbic acid (Sigma-Aldrich, St. Louis, Mo., USA), 10^−7 M dexamethasone (Sigma-Aldrich), 1 mg/ml human serum albumin (Equitech Bio, Kerville, Tex., USA), 1× insulin-transferrin-selenium (Gibco, Life Technologies, Carlsbad, Calif., USA), 5 μg/ml linoleic acid (Sigma-Aldrich), 1× penicillin-streptomycin (PEST) (Sigma-Aldrich), and 10 ng/ml human transforming growth factor (TGF) β-1 (R&D Systems, Abingdon, UK) for 5 days until confluence, in 96-well culture plates for Ca^2+ or in 6-well culture plates for Western blot analysis.
For restoration the cells were incubated with metformin and bupivacaine at day 4 of cultivation for 24 h. At day 5 the Ca^2+ measurements were performed, medium collected for Western blot analysis and cells were harvested and immediately frozen at −80° C. before analysis. […]

In assay [2] the test system is human chondrocytes. In words: Quantitative real-time PCR of growth factors GDF-5 and FGF-18 in chondrocytes. The assay is classed as cell-based. To be noted: for FGF18 expression / GDF5 expression: human chondrocytes, treatment of bupivacaine and sildenafil, FIGS. 1C-D. Here is the method: Cells (human chondrocytes) aimed for RNA isolation were washed with sterile PBS twice before addition of 1M DL-Dithiothreitol solution (Sigma Aldrich) in lysis buffer (Qiagen). The cells were visually inspected to ensure lysis before transfer to RNAse free, endtoxin-free sample tubes, snap frozen in liquid nitrogen, and stored at −80° C. for RNA isolation. Total RNA was extracted and purified with a commercially available kit (RNeasy mini kit, Qiagen) in accordance with the manufacturer's protocol. In brief, cells in lysis buffer were thawed and vortexed for 1 minute before 70% ethanol was added (1:1). The samples were mixed before addition to a spin column, and centrifuged. The column was then washed before genomic DNA was removed with DNase (Qiagen). The washing step was repeated with a stringent wash buffer and thereafter a mild buffer for washing membrane bound RNA. Total RNA was eluted with 50 μl RNase free water. RNA concentration was measured ho with a micro-volume spectrophotometer (ND-1000 spectrophotometer, NanoDrop Technologies, Wilmington, Del.) and RNA quality was evaluated using the Agilent 2100 Bioanalyzer system (Agilent Technologies Inc, Palo Alto, Calif.). cDNA was prepared from total RNA using High Capacity cDNA Reverse Transcription Kit (Applied Biosystems, Foster City, Calif., USA). Commercially available TaqMan Gene Expression Assays all from Applied Biosystems were used (Fibroblast growth factor 18 (FGF-18) and Growth and differentiation factor-5 (GDF-5)). Samples were analyzed in duplicates. The relative comparative CT method was used to analyze the real-time polymerase chain reaction (PCR) data.
Background: In qPCR the cycle at which signal appears reflects the starting amount.

The subject of assay [3] is horse with OA. In words: Clinical lameness examination with flexion test in horses with osteoarthritis. The assay is classed as in vivo. An excerpt:
Lameness examination with flexion test and treatments have been performed by a veterinarian, and the results are shown in FIG. 2A. Lameness examination with flexion test and treatments have been performed by a veterinarian, and the results are shown in FIG. 3A.

The subject of assay [4] is COMP neo-epitope. The experiment in a line: COMP neo-epitope concentration in synovial fluid and serum of horses with osteoarthritis. Conditions: for COMP neo-epitope concentration in serum: after treatment and during rehabilitation. The assay is classed as in vivo, horse. The text has this: Diagnosis of OA may be done with methods known in the art, for example clinical examination, radiography as is known in the art or the use of biomarkers, such as, for example, the COMP protein fragment described in WO2017216289, which is incorporated herein by reference. The presence of the COMP fragment in a bodily fluid, for example serum or synovial fluid, indicates OA, in particular cartilage degradation during OA. The COMP fragment may be detected by using an antibody that specifically binds to a peptide comprising the amino acid sequence N-terminal-SGPTH. It is referred to WO2017216289 for details.
Analysis of COMP epitope concentrations in synovial fluid and serum was carried out as in WO2017216289, and is shown in FIGS. 2B and C, respectively. The presence of the COMP epitope indicates ongoing inflammation and tissue damage in the joint.

`CCCc1nn(C)c2c(=O)[nH]c(-c3cc(S(=O)(=O)N4CCN(C)CC4)ccc3OCC)nc12` [sildenafil]: the “intracellular Ca2+ release (AUC and peak)” value in assay [1] (sildenafil (1 μM, low concentration) added to bupivacaine/metformin, 24 h) was “increased the effect”. The “intracellular calcium signalling, in particular ATP-evoked” value in assay [1] (low doses) is “capable of inhibiting”. Further, in assay [2] (addition of sildenafil in low concentration to bupivacaine), the “growth factors of importance for generation of cartilage” value is listed as “increased the effect”. Besides, the FGF18 expression result in assay [2] is recorded as “upregulated”. The GDF5 expression result in assay [2] was “upregulated”. The clinical lameness grade result in assay [3] (horse number 2, carpal joints, 10 ml intra-articular injections) is recorded as “clinical recovery”; in assay [3] (horse number 3, both carpal joints, intra-articular injection), “clinical recovery”. For the same molecule, the “COMP neo-epitope concentration in serum” value in assay [4] (horse number 2, FIG. 3C) is “decrease of COMP levels to normal physiological levels”; in assay [4] (horse number 3, FIG. 4C), “decreased levels of COMP”. The “COMP neo-epitope concentration in synovial fluid” value in assay [4] (horse number 2, FIG. 3B) is “decrease of COMP levels to normal physiological levels”; in assay [4] (horse number 3, FIG. 4B), “decreased levels of COMP”.

In the case of `C=C1/C(=C\C=C2/CCC[C@]3(C)[C@@H]([C@H](C)CCCC(C)(C)O)CC[C@@H]23)C[C@@H](O)C[C@@H]1O` [D3, 1α,25-dihydroxyvitamin D3], the “intracellular Ca2+ release” value in assay [1] (D3 (calcitriol 100 nM) by itself, 24 h, FIG. 1E) is given as “did not have an effect”.

For `CCCCN1CCCCC1C(=O)Nc1c(C)cccc1C` (centres unmarked) [bupivacaine], the “intracellular Ca2+ release (AUC and peak)” value in assay [1] (bupivacaine 10^-12 M together with metformin 1 mM, 24 h) was “decreased; also recorded: reduced”. Besides, in assay [2], the FGF18 expression result is recorded as “upregulated” and the GDF5 expression result is “upregulated”. The “growth factors of importance for generation of cartilage” value in assay [2] (low concentration of bupivacaine) is on record as “upregulated”.

With hyaluronic acid, in assay [3] (horse number 1, both fetlock joints, hyaluronic acid intra-articularly and corticosteroids orally), the lameness entry is reported as “lameness was increased”.

The values are drawn from US20210386744A1, “SILDENAFIL FOR USE IN THE TREATMENT OF OSTEOARTHRITIS” (MAZELOTTEN 353 AB under namnandring till ARTROA AB, priority 2018, published 2021).
